{"source": "paper PMC10780819", "about": "“Enhanced Cytotoxicity and Antimelanoma Activity of Novel Semisynthetic Derivatives of Betulinic Acid with Indole Conjugation” (Plants, 2023)", "key": {"[1]": {"tested_on": "human melanoma cell line A375", "design": "method as in PMID 36986941", "conditions": "cited from earlier work; for wound healing rate: 50 µM"}, "[2]": {"test": "in vitro", "conditions": "human", "protocol": "(§1) The effect of testing substances (BI and BA1-BA4) on the survival of human keratinocytes cell line HaCat was also assessed.\n(§2) The MTT assay was used to determine the effect of 2,3-indolo-betulinic acid derivatives and betulinic acid on the viability of HaCaT human keratinocyte cell line and B164A5 murine melanoma cells. […] Briefly, 1 × 10^4 cells per well were seeded onto 96-well culture plates and incubated until 70–80% confluence was achieved. Subsequently, the cells were subjected to stimulation for a duration of 72 h using five distinct concentrations (1, 10, 25, 50, and 75 µM) of the test samples. Following a 72 h incubation period, a 10 μL amount of a 5 mg/mL MTT solution obtained from the MTT kit (Sigma-Aldrich, St. Louis, MO, USA) was introduced into each well and subjected to an additional 3 h incubation. The formazan crystals that had been yielded were dissolved by the addition of 100 μL per well of the lysis solution that was included in the MTT kit. B164A5 cells and HaCaT cells were used as a control, and they were only treated with culture medium for 72 h. The spectrophotometric analysis of absorbance was performed at a wavelength of 570 nm using a microplate reader (BioRad, Hercules, CA, USA, xMark Microplate Spectrophotometer)."}, "[3]": {"tested_on": "B164A5 murine melanoma cells", "test": "MTT cell viability assay on B164A5", "conditions": "for reduction of cellular viability: 1 µM, 72 h, MTT; for viability at 75 µM: read-out: cell viability (growth percentage), 75 µM, 72 h, MTT; for viability at 1 µM: read-out: cell viability, 1 µM, 72 h, MTT", "protocol": "as §2"}, "[4]": {"tested_on": "A375 human melanoma cells", "design": "method as in PMID 27553358", "conditions": "72 h incubation; cited from earlier work"}, "[5]": {"tested_on": "murine melanoma B164A5 cells", "test": "Hoechst 33342 nuclear staining", "format": "cell-based", "conditions": "25, 50, 75 μM tested; exposure per Figure 7 legend", "procedure": "The procedure was implemented in accordance with the manufacturer’s recommendations. […] A positive control was used to induce apoptosis, using a concentration of 5 µM staurosporine for a duration of 3 h at a temperature of 37 °C. Similarly, for necrosis induction, a concentration of 0.5% Triton X-100 was utilized, with an incubation period of 30 min at 37 °C."}, "[6]": {"tested_on": "B164A5 cells", "test": "Scratch (wound healing) anti-migratory assay", "format": "cell-based, murine", "conditions": "50 µM, 24 h", "procedure": "To evaluate the invasion capability of B164A5 cells after stimulation with the tested compounds (1, 10, 25, and 50 µM), a scratch-based experiment was conducted. In summary, a quantity of 2 × 10^5 cells/well were evenly distributed onto 12-well culture plates until a complete and cohesive layer of cells was achieved. Subsequently, a sterile pipette tip was used to create a void in the center of each well. The cells and cellular debris that were detached subsequent to the process were carefully rinsed using phosphate buffer saline (PBS). Additionally, the cells were subjected to stimulation with the tested compounds. Photographs of the scratched region were captured at two time points: 0 h and 24 h. The images were obtained using an inverted microscope (Olympus IX73, Olympus, Tokyo, Japan) with a DP74 camera (Olympus, Tokyo, Japan) at a magnification of 10×. The cellSense Dimension program was used for the purpose of analyzing cell growth.\nThe scratch closure rate was calculated using the formula [78]:Scratch closure rate = [(At0 − At)/[…]] × 100, where At0 represents the initial scratch area at time 0 h, and At represents the scratch area after 24 h."}, "[7]": {"tested_on": "Lox IMVI melanoma cells", "design": "method as in doi:10.1134/S1068162018030081", "conditions": "100 µM, 48 h; cited from earlier work"}, "[8]": {"tested_on": "human melanoma A375 cells", "conditions": "cited from earlier work; for cytotoxic effect (LDH): 25 µM"}, "[9]": {"tested_on": "SK-MEL-2 cells", "design": "method as in doi:10.1134/S1068162018030081", "conditions": "100 µM, 48 h; cited from earlier work"}, "[10]": {"test": "MTT cell viability assay on HaCaT", "conditions": "human, HaCaT keratinocyte cells", "protocol": "as §1, §2"}, "[11]": {"tested_on": "HaCaT human keratinocyte cell line", "test": "MTT cell viability assay on HaCaT", "conditions": "for reduction in cell viability: increasing dosages (25, 50, and 75 μM), 72 h", "protocol": "as §1, §2"}, "[12]": {"tested_on": "B164A5 murine melanoma cells", "test": "Lactate dehydrogenase (LDH) release assay", "conditions": "75 µM, 72 h", "protocol": "The LDH technique is used to evaluate the extracellular release of internal lactate dehydrogenase subsequent to the disruption of the cellular membrane.\nThe present investigation used the LDH test to assess the cytotoxicity and necrosis-related events that transpired after the exposure of B164A5 murine melanoma cells to the test samples for a duration of 72 h.\nThe experimental procedure was conducted in accordance with the instructions outlined in the pierce LDH cytotoxicity assay kit, which was supplied by the manufacturer (Thermo Fisher Scientific, Boston, MA, USA)."}, "[13]": {"tested_on": "HaCaT cells", "conditions": "concentrations over 10 μM; cited from earlier work"}, "[14]": {"tested_on": "murine melanoma cells (B164A5)", "test": "Neutral Red (NR) cytotoxicity assay", "conditions": "75 µM, 72 h", "description": "In addition to undertaking the MTT proliferation assessment, the NR technique was used to measure the cytotoxicity rate of the substances being studied. The underlying premise of this methodology depends upon the measurement of live cells using the NR chromophore, which effectively stains the lysosome of living cells. […] Consequently, live cells have the capability to secrete the NR dye when subjected to acidic conditions. Moreover, the intensity of the dye may be directly associated with the quantity of living cells, thereby enabling the assessment of drug-induced cytotoxicity.\nIn summary, the experimental procedure included subjecting the cells to five different doses (1, 10, 25, 50, and 75 µM) of test samples for a duration of 72 h. Subsequently, a volume of 10 μL of a 0.33% NR solution was introduced into each well, followed by an incubation period of at least 3 h. Following the completion of the incubation time, the medium was extracted, and the cells were promptly rinsed with a 50 μL solution of NR assay fixative. Subsequently, a solubilization step was carried out using a 100 μL solution of NR assay solubilization solution per well."}, "[15]": {"tested_on": "murine melanoma cells B164A5", "design": "cell viability: dose or concentration left out as unconfirmed", "conditions": "cited from earlier work"}}, "note": "Entries after “also recorded” stand apart in the source; their conditions may differ.", "data": [{"smiles": "C=C(C)[C@@H]1CC[C@]2(C(=O)NCC(=O)NCC(=O)NCC(=O)O)CC[C@]3(C)[C@H](CC[C@@H]4[C@@]5(C)Cc6c([nH]c7ccccc67)C(C)(C)[C@@H]5CC[C@]43C)[C@@H]12", "note": "[BA1, N-(2,3-indolo-betulinoyl)diglycylglycine]", "values": [{"measurement": "wound healing rate", "setting": "[1]", "result": 35, "unit": "%"}, {"measurement": "viability at 72 h, 75 µM", "setting": "[2]", "result": "~70", "unit": "%"}, {"measurement": "reduction of cellular viability", "setting": "[3]", "result": 27, "unit": "%"}, {"measurement": "IC50", "setting": "[3]; Mus musculus, B16-4A5, 72 h", "result": "10.34 ± 0.06", "unit": "µM"}, {"measurement": "viability at 75 µM", "setting": "[3]; Mus musculus, B16-4A5, 72 h", "result": 5.7, "unit": "%"}, {"measurement": "IC50", "setting": "[4]", "result": 5.7, "unit": "µM"}, {"measurement": "nuclear changes (apoptosis / necrosis)", "setting": "[5]", "result": "apoptosis features only at a concentration of 75 μM; also recorded: apoptotic characteristics only at a concentration of 75 μM"}]}, {"smiles": "C=C(C)[C@@H]1CC[C@]2(C(=O)NCC(=O)NCC(=O)O)CC[C@]3(C)[C@H](CC[C@@H]4[C@@]5(C)Cc6c([nH]c7ccccc67)C(C)(C)[C@@H]5CC[C@]43C)[C@@H]12", "note": "[BA2, N-(2,3-indolo-betulinoyl)glycylglycine]", "values": [{"measurement": "wound healing rate", "setting": "[1]", "result": 30, "unit": "%"}, {"measurement": "viability at 72 h, 75 µM", "setting": "[2]", "result": "~70", "unit": "%"}, {"measurement": "wound healing rate (scratch closure rate)", "setting": "[6]", "result": 10.0, "unit": "%"}, {"measurement": "reduction of cellular viability", "setting": "[3]", "result": 15, "unit": "%"}, {"measurement": "IC50", "setting": "[3]; Mus musculus, B16-4A5, 72 h", "result": "9.15 ± 0.05", "unit": "µM"}, {"measurement": "viability at 1 µM", "setting": "[3]; Mus musculus, B16-4A5, 72 h", "result": 15.9, "unit": "%"}, {"measurement": "viability at 50 µM", "setting": "[3]; Mus musculus, B16-4A5, 72 h, read-out: cell viability, 50 µM, 72 h, MTT", "result": 0.41, "unit": "%"}, {"measurement": "inhibitory activity relative to BA4", "setting": "[3]; ratio of IC50 values", "result": "approximately 2.20 fold"}, {"measurement": "nuclear changes (apoptosis / necrosis)", "setting": "[5]", "result": "specific signs of apoptosis (chromatin condensation) at both concentrations of 50 and 75 μM; also recorded: distinct signs of apoptosis, such as chromatin condensation, at both concentrations of 50 and 75 μM"}]}, {"smiles": "C=C(C)[C@@H]1CC[C@]2(C(=O)NCC(=O)O)CC[C@]3(C)[C@H](CC[C@@H]4[C@@]5(C)Cc6c([nH]c7ccccc67)C(C)(C)[C@@H]5CC[C@]43C)[C@@H]12", "note": "[BA3, N-(2,3-indolo-betulinoyl)glycine]", "values": [{"measurement": "viability at 72 h, 75 µM", "setting": "[2]", "result": "~70", "unit": "%"}, {"measurement": "wound healing rate (scratch closure rate)", "setting": "[6]", "result": 21.3, "unit": "%"}, {"measurement": "IC50", "setting": "[3]; Mus musculus, B16-4A5, 72 h", "result": "8.11 ± 0.13", "unit": "µM"}, {"measurement": "viability at 75 µM", "setting": "[3]; Mus musculus, B16-4A5, 72 h", "result": -1.5, "unit": "%"}, {"measurement": "viability at 1 µM", "setting": "[3]; Mus musculus, B16-4A5, 72 h", "result": 8.1, "unit": "%"}, {"measurement": "inhibitory activity relative to BA4", "setting": "[3]; ratio of IC50 values", "result": "approximately 2.20 fold"}, {"measurement": "nuclear changes (apoptosis / necrosis)", "setting": "[5]", "result": "necrosis process being observed from concentration of 25 μM; also recorded: necrotic process being apparent at a dosage of 25 μM"}]}, {"smiles": "C=C(C)C1CCC2(C(=O)O)CCC3(C)C(CCC4C5(C)Cc6c([nH]c7ccccc67)C(C)(C)C5CCC43C)C12", "note": "(stereo not shown) [BA4, 2,3-indolo-betulinic acid]", "values": [{"measurement": "viability percentage", "setting": "[7]", "result": 44, "unit": "%"}, {"measurement": "cytotoxic effect (LDH)", "setting": "[8]", "result": 43.36, "unit": "%"}, {"measurement": "cytotoxic rate (LDH)", "setting": "[8]; 75 µM", "result": 32.8, "unit": "%"}, {"measurement": "IC50", "setting": "[3]; Mus musculus, B16-4A5, 72 h", "result": "17.62 ± 0.11", "unit": "µM"}, {"measurement": "viability at 75 µM", "setting": "[3]; Mus musculus, B16-4A5, 72 h", "result": 15, "unit": "%"}, {"measurement": "activity relative to parent triterpenoid BI", "setting": "[3]; ratio of IC50 values", "result": 1.2, "unit": "times"}, {"measurement": "viability rate", "setting": "[9]", "result": 57, "unit": "%"}, {"measurement": "viability at 72 h, 75 µM", "setting": "[10]", "result": 80.3, "unit": "%"}, {"measurement": "reduction in cell viability", "setting": "[11]", "result": "around 21%"}, {"measurement": "nuclear changes (apoptosis / necrosis)", "setting": "[5]", "result": "necrosis only from a concentration of 50 μM; also recorded: necrosis was evident in cells exposed to BA4 and BI only at a concentration of 50 μM"}]}, {"smiles": "C=C(C)[C@@H]1CC[C@]2(C(=O)O)CC[C@]3(C)[C@H](CC[C@@H]4[C@@]5(C)CC[C@H](O)C(C)(C)[C@@H]5CC[C@]43C)[C@@H]12", "note": "[BI, Betulinic acid]", "values": [{"measurement": "LDH release (cytotoxic rate)", "setting": "[12]", "result": 52.7, "unit": "%"}, {"measurement": "decrease in cell viability", "setting": "[13]", "result": 20, "unit": "%"}, {"measurement": "scratch closure rate", "setting": "[1]; 25 µM", "result": 17.5, "unit": "%"}, {"measurement": "cytotoxicity rate (NR assay)", "setting": "[14]", "result": 63.0, "unit": "%"}, {"measurement": "cytotoxic effect (LDH)", "setting": "[8]", "result": 21.2, "unit": "%"}, {"measurement": "wound healing rate (scratch closure rate)", "setting": "[6]", "result": 34.9, "unit": "%"}, {"measurement": "reduction in cell viability", "setting": "[15]; 25 µM, 48 h of exposure", "result": 40, "unit": "%"}, {"measurement": "cell viability", "setting": "[15]; 72 h of exposure", "result": 50, "unit": "%"}, {"measurement": "reduction of cellular viability", "setting": "[3]", "result": 32, "unit": "%"}, {"measurement": "reduction in cell viability", "setting": "[3]; 25 µM, 72 h exposure", "result": 71, "unit": "%"}, {"measurement": "IC50", "setting": "[3]; Mus musculus, B16-4A5, 72 h", "result": "21.14 ± 0.08", "unit": "µM"}, {"measurement": "viability at 75 µM", "setting": "[3]; Mus musculus, B16-4A5, 72 h", "result": 9.6, "unit": "%"}, {"measurement": "viability at 1 µM", "setting": "[3]; Mus musculus, B16-4A5, 72 h", "result": 31.3, "unit": "%"}, {"measurement": "cell viability diminished by", "setting": "[11]; concentrations exceeding 10 µM", "result": "approximately 20%"}, {"measurement": "reduction in cell viability", "setting": "[11]", "result": "around 21%"}, {"measurement": "nuclear changes (apoptosis / necrosis)", "setting": "[5]", "result": "necrosis only from a concentration of 50 μM; also recorded: necrosis was evident in cells exposed to BA4 and BI only at a concentration of 50 μM"}]}]}
